In patent US20060252698A1, “Compounds for inhibiting cathepsin activity” (priority 2005, published 2006):
Starred links: 1 amine or outer side, 2 acyl side, 3 side chain; linkers in the order of their positions; H or OH if unused. Non-standard residues stand in square brackets, D forms with d. Residues, ends and D or L forms follow the SMILES beside them. *: point of attachment. Pro(3S,4R-methano) = O=C(O)[C@H]1NC[C@@H]2C[C@@H]21; Isobutyloxycarbonyl = CC(C)COC(=O)*; X3 = C=CCCC(N[*:1])C(=O)C(=O)[*:2]; Hyp = O=C(O)[C@@H]1C[C@@H](O)CN1; X2 = CCCC(N[*:1])C(=O)C(=O)[*:2]; Tic = O=C(O)[C@@H]1Cc2ccccc2CN1; Chg = N[CH](C(=O)O)C1CCCCC1; Phg = N[CH](C(=O)O)c1ccccc1; Tle = CC(C)(C)[C@H](N)C(=O)O; Boc = CC(C)(C)OC(=O)*; CO = O=C([*:1])[*:2]; X1 = CC1(N*)CCCCC1; tBu = CC(C)(C)*

How the values were obtained:
[1] = target: T1, Human Liver Cathepsin L (Homo sapiens, UniProt P07711); experiment: Cathepsin L inhibition assay (kinetic, Z-Phe-Arg-pNA substrate); format: biochemical; conditions: Z-Phe-Arg-pNA 120 μM, enzyme 12 nM, pH 5.5, read at 410 nm
T1 construct: purchased Calbiochem 219402
T1 sequence (P07711 114-288 limits assumed): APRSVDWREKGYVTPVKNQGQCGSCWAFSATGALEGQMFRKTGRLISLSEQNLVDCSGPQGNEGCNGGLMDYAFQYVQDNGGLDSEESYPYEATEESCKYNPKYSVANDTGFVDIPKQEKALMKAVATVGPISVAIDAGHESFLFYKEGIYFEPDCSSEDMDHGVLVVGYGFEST
T1 sequence (P07711 292-333 limits assumed): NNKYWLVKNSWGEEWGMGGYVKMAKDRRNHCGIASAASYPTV
Experimental: Cathepsin Assay Protocols:
• 1. 96-well Round or V-bottom microplates for dilutions • 2. 96-well COSTAR UV microplates for assay (COSTAR cat.#3635) • 3. Bio-Spin 6 Chromatography Columns (BIO-RAD cat.#732-6002). • 4. 12-75 mm test tubes • 5. Falcon 50 ml tubes • 6. Falcon 14 ml tubes • 7. 1.5 ml eppendorf tube • 8. ≦10 ml buffer reservoir Reagents: • 1. Enzyme: Cathepsin G, M.W.23,500, 10 μM stock. • 2. Substrate:Suc-Ala-Ala-Pro-Phe-pNA, M.W. 624.65, prep. 100 mM [62.465 mg/ml] stock. • 3. Buffer: [50 mM HEPES, 500 mM NaCl, 5 μM EDTA, pH 7.14], 5 μM DTT Instrument Settings: SpectraMax Plus • 1. Kinetic assay reading@405 nm • 2. Read interval: 30 seconds • 3. Time: 1 hour • 4. OD Min: −0.001 • 5. OD Max: 0.5 • 6. Data Mode: Absorbance • 7. e405=194.078 μM/O.D. Procedure: • 1. Add 73 μl of buffer to all wells. • 2. Add […] of buffer to (−E) controls. • 3. Add 7 μl of sample and/or DMSO for controls to appropriate wells. • 4. Prep. substrate: 100 mM (62.465 mg/ml) stock in 100% DMSO. • 5. Dilute 1:20 in buffer. 75 μl in 1.425 ml. 5 mM final. • 6. Add 20 μl of 5 mM substrate to all wells. 500 μM final. • 7. Dilute enzyme (1:50) in buffer; Add 120 μl to 5,880 μl buffer. 2×[200 nM] final. • 8. Add 100 μl of 2× [200 nM] enzyme to assigned wells, except (−E) controls. [100 nM] final. • 11. Vortex 20 seconds. Read@ 405 nM every 30 seconds for 1 hour on SpectraMax Plus • Endpoint assay reading plate@ 600 nM. Used for the detection of precipitation. Cathepsin H: Materials: • 1. 96-well Round or V-bottom microplates for dilutions • 2. 96-well COSTAR UV microplates for assay (COSTAR cat.#3635) • 3. Bio-Spin 6 Chromatography Columns (BIO-RAD cat.#732-6002) • 4. 12-75 mm test tubes • 5. Falcon 50 ml tubes • 6. Falcon 14 ml tubes • 7. 1.5 ml eppendorf tube • 8. ≧10 ml buffer reservoir Reagents: • 1. Enzyme: Cathepsin H, M.W.28,000, 9.07 μM stock. • 2. Substrate:H-Arg-pNA, M.W. 367.2, prep. 50 mM [18.36 mg/ml] stock. • 3. Buffer: [100 mM NaP04, 1 mM EDTA, 1 mM DTT, pH 6.5 Instrument Settings: SpectraMax Plus • 1. Kinetic assay reading@410 nM • 2. Read interval: 30 seconds • 3. Time: 1 hour • 4. OD Min: −0.001 • 5. OD Max: 0.05 • 6. Data Mode: Absorbance • 7. e410=188.415 μM/O.D. Km=108±5 μM Procedure: • 1. Prep. substrate: 50 mM (18.36 mg/ml) stock in 100% DMSO. • 2. Add 73 μl of buffer to all wells. • 3. Add 7 μl of sample to appropriate wells: a.) 100% DMSO for (+E) & (−E) controls. • 4. Add 100 μl of buffer to (−E) controls. • 5. Dilute substrate (1:20) in buffer; Add 140 μl to 2.66 ml buffer while vortexing. [2.5 mM] final. • 6. Add 20 μl of substrate to all wells. Vortex 3-5 seconds. [250 μM] final. • 7. Dilute enzyme (1:64.8) in buffer; Add 179 μl to 11.418 ml buffer. 2× [140 nM] final. • 8. Add 100 μl of 2× [140 nM] enzyme to assigned wells, except (−E) controls. [70 nM] final. • 9. Read@410 nM every 30 seconds for 1 hour on SpectraMax Plus Cathepsin L: Materials: • 1. 96-well Round or V-bottom microplates for dilutions • 2. 96-well COSTAR UV microplates for assay (COSTAR cat.#3635) • 3. Falcon 50 ml tubes • 4. Falcon 14 ml tubes • 5. 1.5 ml eppendorf tube • 6. 10 ml buffer reservoir Reagents: • 1. Enzyme: Calbiochem #219402: Cathepsin L, M.W.29,000, 11.62 μM stock. Lot#B45683 • 2. Substrate: Bachem #L-1242: Z-Phe-Arg-pNA, M.W. 612.09, prep. 4.8 mM [2.938 mg/ml] stock in 100% DMSO. • 3. Buffer: [100 mM NaP04, 1 mM EDTA, pH 5.5] Supplement buffer w/1 mM DTT, day of assay. Experiment #1: • Instrument settings: SpectraMax Plus microtiter plate reader (Molecular Devices, Sunnydale, Calif.) • 1. Kinetic assay reading@410 nM • 2. Read interval: 30 seconds • 3. Time: 1 hour • 4. OD Min: −0.001 • 5. OD Max: 0.05 • 6. Data Mode: Absorbance • 7. ε410=161.311 μM/O.D. Km=56±8 μM Procedure: • 1. Add 88 μl of buffer to all wells. • 2. Add 7 μl of sample or 100% DMSO to appropriate wells. • 3. Add 100 μl of buffer to (−E) controls. • 5. Add 5 μ 4.8 mM] substrate to all wells. [120 μM] final. • 6. Vortex 3-5 seconds. • 7. Dilute enzyme (1:483.87) in buffer; Add 24.8 μl to 12,000 μl buffer. 2×[24 nM] final. • 8. […]

[2] = system: melanoma A375 tumors; conditions: melanoma A375 tumors implanted into the left ventricle of the heart; cited from earlier work

Row | SMILES | Ki [1] | distant bone metastasis to the femur and tibia [2]
1 | CCCC[C@H](NC(=O)[C@@H]1[C@@H]2[C@H](CN1C(=O)[C@@H](NC(=O)NC1(CS(=O)(=O)C(C)(C)C)CCCCC1)C1(C)CCCCC1)C2(C)C)C(=O)C(=O)NC1CC1 | 11 nM | 
2 | CCCC(NC(=O)[C@@H]1[C@@H]2CCN1C(=O)[C@H](C(C)(C)C)NC(=O)Cc1cccc(c1)OCCCO2)C(=O)C(=O)NCC(=O)N[C@H](C(=O)N(C)C)c1ccccc1 (stereo partly drawn) | 70 nM | 
3 | CCC1C[C@]1(NC(=O)[C@@H]1C[C@H](Oc2cc(-c3ccccc3)nc3cc(OC)ccc23)CN1C(=O)[C@@H](NC(=O)OC(C)(C)C)C(C)C)C(=O)O (stereo partly drawn) | 100 nM | 
4 | CCCC(NC(=O)[C@@H]1C[C@@H]2CN1C(=O)C(C1CCCCC1)NC(=O)Cc1cccc(c1)OCCCC(C)(C)C2)C(=O)C(N)=O (stereo partly drawn) | 17 nM | 
5 | CN(C)C(=O)c1nc(CNC(=O)C(=O)C(CC2CCC2)NC(=O)[C@@H]2[C@@H]3[C@H](CN2C(=O)[C@@H](NC(=O)NC(C)(C)C)C(C)(C)C)C3(C)C)sc1-c1ccccc1 (stereo partly drawn) | 190 nM | 
6 | CC(C)(C)NC(=O)N[C@H]1CCCCCCCCCC[C@@H](C(=O)C(N)=O)NC(=O)[C@@H]2[C@@H]3[C@H](CN2C1=O)C3(C)C | 300 nM | 
7 | CC(C)(C)OC(=O)N[C@H]1CCCCCCCC[C@@H](C(=O)C(N)=O)NC(=O)[C@@H]2[C@@H]3[C@H](CN2C1=O)C3(C)C | 550 nM | 
8 | C=CCNC(=O)C(=O)C(CCC)NC(=O)[C@@H]1CCCN1C(=O)[C@@H](NC(=O)NC1(CS(C)(=O)=O)CCCCC1)C(C)(C)C (stereo partly drawn) | 740 nM | 
9 | C=CCCC(NC(=O)[C@@H]1[C@H]2C[C@H]2CN1C(=O)[C@@H](NC(=O)OC(C)(C)C)C1CCCCC1)C(=O)C(=O)NCC(=O)N[C@H](C(=O)N(C)C)c1ccccc1 (stereo partly drawn) (Boc-[Chg][Pro(3S,4R-methano)][X3]G[Phg]-NMe2) | 270 nM | 
10 | CCCC(NC(=O)[C@@H]1Cc2ccccc2CN1C(=O)[C@@H](NC(=O)OC(C)(C)C)C1CCCCC1)C(=O)C(=O)NCC(=O)N[C@H](C(=O)NC)c1ccccc1 (stereo partly drawn) (Boc-[Chg][Tic][X2]G[Phg]-NHMe) | 36 nM | 
11 | CCCC(NC(=O)C(CC(C)C)NC(=O)C(NC(=O)OCC(C)C)C1CCCCC1)C(=O)C(=O)NCC(=O)NC(C(N)=O)c1ccccc1 (stereo not drawn) (Isobutyloxycarbonyl-[Chg]L[X2]G[Phg]-NH2; configuration not given here) | 2 nM | 
12 | CCCC(NC(=O)[C@@H]1C[C@@H](OC(C)(C)C)CN1C(=O)[C@@H](NC(=O)NC1(C)CCCCC1)C(C)(C)C)C(=O)C(=O)NCC(=O)N[C@H](C(=O)N(C)C)c1ccccc1 (stereo partly drawn) ({X1-CO}-[Tle][Hyp](tBu)[X2]G[Phg]-NMe2) | 170 nM | 
13 | CN(C)C(=O)[C@H](Cc1ccccc1)NC(=O)[C@H]1O[C@@H]1C(=O)NCCc1ccccn1 [CLIK-148] |  | reduced distant bone metastasis
14 | CCCC[C@H](NC(=O)[C@@H]1[C@@H]2[C@H](CN1C(=O)[C@@H](NC(=O)NC1(CS(=O)(=O)C(C)(C)C)CCCCC1)C(C)(C)C)C2(C)C)C(=O)C(=O)NC1CC1 [drawing 652] | 7 nM | 
15 | C=CCNC(=O)C(=O)[C@@H]1CCCCCCCCC[C@H](NC(=O)NC2(CS(=O)(=O)C(C)(C)C)CCCCC2)C(=O)N2C[C@H]3[C@@H]([C@H]2C(=O)N1)C3(C)C [drawing 653] | 10 nM | 
16 | CC(C)(C)[C@H](NC(=O)NC1(CS(=O)(=O)C(C)(C)C)CCCCC1)C(=O)N1C[C@H]2[C@@H]([C@H]1C(=O)N[C@@H](CCC1CC1)C(=O)C(=O)NC1CC1)C2(C)C [drawing 662] | 25 nM | 
17 | CCCC[C@H](NC(=O)[C@@H]1[C@@H]2[C@H](CN1C(=O)[C@@H](NC(=O)NC1(CS(=O)(=O)C(C)(C)C)CCCCC1)C(C)(C)C)C2(C)C)C(=O)C(=O)NC1CC1 [drawing 667] | 40 nM | 
18 | C=CCNC(=O)C(=O)[C@H](CCC1CC1)NC(=O)[C@@H]1[C@@H]2[C@H](CN1C(=O)[C@@H](NC(=O)NC1(CS(=O)(=O)C(C)(C)C)CCCCC1)C(C)(C)C)C2(C)C [drawing 669] | 40 nM | 
19 | C=CCNC(=O)C(=O)[C@H](CCC1CC1)NC(=O)[C@@H]1[C@@H]2[C@H](CN1C(=O)[C@@H](NC(=O)NC1(CS(=O)(=O)C(C)(C)C)CCCCC1)C(C)(C)C)C2(C)C [drawing 670] | 45 nM | 
20 | CC(C)(C)[C@H](NC(=O)NC1(CS(=O)(=O)C(C)(C)C)CCCCC1)C(=O)N1C[C@H]2[C@@H]([C@H]1C(=O)N[C@@H](CCC1CC1)C(=O)C(=O)NC1CC1)C2(C)C [drawing 671] | 47 nM | 
21 | C=CCNC(=O)C(=O)[C@H](CCCC)NC(=O)[C@@H]1[C@@H]2[C@H](CN1C(=O)[C@@H](NC(=O)NC1([C@H]3CCCS3(=O)=O)CCCCC1)C(C)(C)C)C2(C)C [drawing 672] | 49 nM | 
22 | C=CCNC(=O)C(=O)[C@H](CCCC)NC(=O)[C@@H]1[C@@H]2[C@H](CN1C(=O)[C@@H](NC(=O)NC1([C@H]3CCCS3(=O)=O)CCCCC1)C(C)(C)C)C2(C)C [drawing 681] | 140 nM | 
23 | CC(=O)N[C@@H](CC(C)C)C(=O)N[C@@H](CC(C)C)C(=O)N[C@H](C=O)CCCNC(=N)N [drawing 687] | 9 nM | 
24 | CC(=O)N[C@@H](CC(C)C)C(=O)N[C@@H](CC(C)C)C(=O)N[C@H](C=O)CCCNC(=N)N [drawing 688] | 1.9 nM | 
25 | CC(=O)N[C@@H](CC(C)C)C(=O)N[C@@H](CC(C)C)C(=O)N[C@H](C=O)CCCNC(=N)N [drawing 689] | 8 nM | 
26 | C=CCNC(=O)C(=O)[C@@H]1CCCCCCCCC[C@H](NC(=O)NC2(CS(=O)(=O)C(C)(C)C)CCCCC2)C(=O)N2C[C@H]3[C@@H]([C@H]2C(=O)N1)C3(C)C [drawing 699] | 60 nM | 
27 | CC(=O)N[C@@H](CC(C)C)C(=O)N[C@@H](CC(C)C)C(=O)N[C@H](C=O)CCCNC(=N)N [drawing 710] | 4.8 nM | 
